system: anti-Psl mAb WapR-016 (class III); test: ELISA, class III mAb WapR-016 binding to oligosaccharide-BSA conjugates; conditions: oligosaccharide-BSA conjugate coated on plate; mAb 5 μg/mL
Method: Microtiter plates were coated with tetrasaccharide (3)-BSA conjugate (3A), pentasaccharide (2)-BSA conjugate (3B), hexasaccharide (4)-BSA conjugate (3C), and decasaccharide (1)-BSA conjugate (3D) at the indicated carbohydrate concentrations. Anti-Psl mAbs class I (Cam-003, ●), class II (WapR-001, ▪), class III (WapR-016, ▴), and R347 (♦) (5 μg/mL) were tested for reactivity with each oligosaccharide component. The optical density (OD) values are reported as the means±SD. Class I (Cam-003), II (WapR-001), and III (WapR-016) anti-Psl mAbs were previously shown to bind three unique epitopes of Psl derived from P. aeruginosa.
The conjugations were performed as instructed by Pierce Endogen Inc. In short, the thiol derivative (2.5 eq. excess to available MI-groups on the protein), deprotected just prior to conjugation as described above, was dissolved in ddH2O (100 μL) and added to a solution of the maleimide activated protein (2 mg) in conjugation buffer sodium phosphate pH 7.2 containing EDTA and sodium azide (200 μL). The mixture was incubated at room temperature for 18 h and then purified by Millipore Centriplus centrifugal filter devices with a 10 kDa molecular cutoff. All centrifugations were performed at 4° C. for 25 min, 3000 rpm. The reaction mixture was centrifuged and the filter washed with sodium phosphate buffer pH 7.4 (3×200 μL). The conjugate was retrieved and taken up in sodium phosphate buffer pH 7.4, 0.15 M sodium chloride (1 mL). This gave glycoconjugates with a molar carbohydrate/BSA ratio of 7:1 for tetrasaccharide 3, 8:1 for pentasaccharide 2, 15:1 for hexasaccharide 4, and 5:1 for decasaccharide 1 as determined by quantitative monosaccharide analysis by HPAEC/PAD and the Lowry protein concentration assay.
ELISA plates (Nunc MaxiSorp) were coated overnight at 4° C. with 3-fold serial dilutions of oligosaccharide-BSA conjugates (relative to the concentration of the conjugated oligosaccharides) followed by washing with PBS supplemented with 0.1% Tween 20 (PBS-T) and blocking with PBS supplemented with 1% bovine serum albumin (PBS-B). The coated ELISA plates were incubated with anti-Psl antibodies (5 μg/mL in PBS-B) for 1 h at 4° C. Next the plates were washed with PBS-T and treated with HRP-conjugated anti-human secondary antibodies for 1 h followed by development and analysis as described (Digiandomenico, A., et al., J. Exp. Med. 2012, 209, 1273-1287).
After confirming the structural integrity of the synthetic Psl oligosaccharides, the ability of various anti-Psl mAbs to recognize the synthetic oligosaccharides was examined as follows. […]

Row | Compound | ELISA reactivity with WapR-016
1 | CC1O[C@@H](OC2C(O)[C@H](OC3C(O[C@H]4OC(CO)[C@@H](O)C(O)C4O)[C@H](OC4C(O)[C@H](OC5C(O)[C@H](OC6C(O)[C@H](OCN)OC(CO)[C@H]6O)OC(C)[C@@H]5O)OC(CO)[C@H]4O)OC(CO)[C@H]3O)OC(CO)[C@H]2O)C(O)C(O[C@@H]2OC(CO)[C@@H](O)C(O[C@@H]3OC(CO)[C@@H](O)C(O)C3O[C@H]3OC(CO)[C@@H](O)C(O)C3O)C2O)[C@H]1O (stereo partly shown) [compound 1] | weakly
2 | CC1O[C@@H](OC2C(O)[C@H](OCN)OC(CO)[C@H]2O)C(O)C(O[C@@H]2OC(CO)[C@@H](O)C(O[C@@H]3OC(CO)[C@@H](O)C(O[C@@H]4OC(CO)[C@@H](O)C(O)C4O)C3O[C@H]3OC(CO)[C@@H](O)C(O)C3O)C2O)[C@H]1O (stereo partly shown) [compound 4] | react potently
3 | CC1O[C@@H](OC2C(O)[C@H](OCN)OC(CO)[C@H]2O)C(O)C(O[C@@H]2OC(CO)[C@@H](O)C(O[C@@H]3OC(CO)[C@@H](O)C(O)C3O[C@H]3OC(CO)[C@@H](O)C(O)C3O)C2O)[C@H]1O (stereo partly shown) [compound 2] | did not bind
4 | CC1O[C@@H](OC2C(O)[C@H](OCN)OC(CO)[C@H]2O)C(O)C(O[C@@H]2OC(CO)[C@@H](O)C(O[C@@H]3OC(CO)[C@@H](O)C(O)C3O)C2O)[C@H]1O (stereo partly shown) [compound 3] | did not bind

From patent US10870710B2, “Synthetic oligosaccharide subunits of the Psl exopolysaccharide of pseudomonas aeruginosa and uses thereof” (Medlmmune Limited, priority 2013, dated 2020)
